Assay results reported in patent US20120245159A1, “COMPOSITION AND METHOD FOR CONTROLLING ARTHROPOD PESTS” (SUMITOMO CHEMICAL COMPANY, LIMITED, priority 2009, published 2012).

What was measured:
Type in all cases: in vivo
[1] = test system: cotton aphid (Aphis gossypii); assay: Test Example 1: pesticidal effect against cotton aphid by spray treatment (cucumber leaf disk, control value); settings: composition of the compound and clothianidin; spray over cucumber leaf disk, 25° C., 5 days; summary of Table 43
Experimental: A commercially available clothianidin water-soluble agent, manufactured by Sumitomo Chemical Co., Ltd. under the product name of Dantotsu (registered trademark) water-soluble agent, as the neonicotinoide compound was diluted with water. […] In a well of 24-well plate containing agar, a cucumber leaf disk was put on the agar and about 15 cotton aphids (Aphis gossypii) were released on the leaf disk. The test chemical solution (20 μl/well) was sprayed over the leaf disk, followed by storage in a constant-temperature breeding room at 25° C. for 5 days, and then the number of surviving aphids was checked. A control value (%) was calculated by the following equation. […] wherein symbols represents the following meanings. Cb: Number of bugs in non-treated group before treatment Cai: Number of bugs in a non-treated group on observation Tb: Number of bugs in treated group before treatment Tai: Number of bugs in treated group on observation

[2] = test system: brown planthopper (Nilaparvata lugens); assay: Test Example 2: pesticidal effect against brown planthopper by foliage spray treatment of rice (control value); settings: foliage spray of rice seedlings, third-instar larvae, after 5 days
[3] = test system: cotton aphid (Aphis gossypii); assay: Test Example 3: pesticidal effect against cotton aphid by spray treatment (cucumber leaf disk, control value); settings: composition of the compound and clothianidin; spray over cucumber leaf disk, 25° C., 5 days; summary of Table 49
[4] = test system: brown planthopper (Nilaparvata lugens); assay: Test Example 4: pesticidal effect against brown planthopper by foliage spray treatment of rice (control value); settings: foliage spray of rice seedlings, third-instar larvae, after 5 days
[5] = composition of the compound and clothianidin, summary of Table 44
[6] = composition of the compound and dinotefuran, summary of Table 48
[7] = composition of the compound and imidacloprid, summary of Table 47
[8] = composition of the compound and nitenpyram, summary of Table 45
[9] = composition of the compound and thiamethoxam, summary of Table 46

| Structure (SMILES) | pesticidal efficacy against cotton aphid (Aphis gossypii) [1] | pesticidal efficacy against brown planthopper (Nilaparvata lugens) [2, 5] | pesticidal efficacy against brown planthopper (Nilaparvata lugens) [2, 6] | pesticidal efficacy against brown planthopper (Nilaparvata lugens) [2, 7] | pesticidal efficacy against brown planthopper (Nilaparvata lugens) [2, 8] | pesticidal efficacy against brown planthopper (Nilaparvata lugens) [2, 9] | further results |
| --- | --- | --- | --- | --- | --- | --- | --- |
| FC(F)(F)c1ccc2oc(-c3ccncc3)nc2c1 [Compound 13, 2-(pyridin-4-yl)-5-(trifluoromethyl)benzoxazole] | high pesticidal efficacy |  |  |  |  |  |  |
| FC(F)(F)c1ccc2oc(-c3ccncc3Cl)nc2c1 [Compound 18, 2-(3-chloropyridin-4-yl)-5-(trifluoromethyl)benzoxazole] | high pesticidal efficacy | high pesticidal efficacy | high pesticidal efficacy | high pesticidal efficacy | high pesticidal efficacy | high pesticidal efficacy |  |
| Cc1c[n+]([O-])ccc1-c1nc2cc(C(F)(F)F)ccc2o1 [Compound 24, 3-methyl-4-[5-(trifluoromethyl)benzoxazole-2-yl]pyridine N-oxide] | high pesticidal efficacy |  |  |  |  |  |  |
| CCc1cnccc1-c1nc2cc(C(F)(F)F)ccc2o1 [Compound 35, 2-(3-ethylpyridin-4-yl)-5-(trifluoromethyl)benzoxazole] | high pesticidal efficacy |  |  |  |  |  |  |
| FC(F)(F)COc1cnccc1-c1nc2cc(C(F)(F)F)ccc2o1 [Compound 39, 2-[3-(2,2,2-trifluoroethyl)oxypyridin-4-yl]-5-(trifluoromethyl)benzoxazole] |  |  |  |  |  |  | pesticidal efficacy against cotton aphid (Aphis gossypii) [3]: high pesticidal efficacy; pesticidal efficacy against brown planthopper (Nilaparvata lugens) ([4]; composition of the compound and clothianidin, summary of Table 50): high pesticidal efficacy; pesticidal efficacy against brown planthopper (Nilaparvata lugens) ([4]; composition of the compound and dinotefuran, summary of Table 54): high pesticidal efficacy; pesticidal efficacy against brown planthopper (Nilaparvata lugens) ([4]; composition of the compound and imidacloprid, summary of Table 53): high pesticidal efficacy; pesticidal efficacy against brown planthopper (Nilaparvata lugens) ([4]; composition of the compound and nitenpyram, summary of Table 51): high pesticidal efficacy; pesticidal efficacy against brown planthopper (Nilaparvata lugens) ([4]; composition of the compound and thiamethoxam, summary of Table 52): high pesticidal efficacy |
| CSc1cnccc1-c1nc2cc(C(F)(F)F)ccc2o1 [Compound 40, 2-[3-(methylthio)pyridin-4-yl]-5-(trifluoromethyl)benzoxazole] | high pesticidal efficacy |  |  |  |  |  |  |
| FC(F)(F)C(F)(F)c1ccc2oc(-c3ccncc3)nc2c1 [Compound 65, 5-(pentafluoroethyl)-2-(pyridin-4-yl)-benzoxazole] | high pesticidal efficacy |  |  |  |  |  |  |
| CC(C)Oc1cnccc1-c1nc2cc(C(F)(F)F)ccc2o1 [Compound 70, 2-(3-isopropoxypyridin-4-yl)-5-(trifluoromethyl)benzoxazole] | high pesticidal efficacy | high pesticidal efficacy | high pesticidal efficacy | high pesticidal efficacy | high pesticidal efficacy | high pesticidal efficacy |  |
| FC(F)(F)Sc1ccc2oc(-c3ccncc3Cl)nc2c1 [Compound 77, 2-(3-chloropyridin-4-yl)-5-(trifluoromethylthio)benzoxazole] | high pesticidal efficacy | high pesticidal efficacy | high pesticidal efficacy | high pesticidal efficacy | high pesticidal efficacy | high pesticidal efficacy |  |
| COc1cnccc1-c1nc2cc3c(cc2o1)C(F)(F)OC3(F)F [Compound 88, 5,5,7,7-tetrafluoro-2-(3-methoxypyridin-4-yl)-5,7-dihydro-furo[3′,4′:4,5]benzo[1,2-d]oxazole] | high pesticidal efficacy |  |  |  |  |  |  |
| CCc1cnccc1-c1nc2cc(OC(F)(F)F)ccc2o1 [Compound 109, 2-(3-ethylpyridin-4-yl)-5-(trifluoromethoxy)benzoxazole] |  | high pesticidal efficacy | high pesticidal efficacy | high pesticidal efficacy | high pesticidal efficacy | high pesticidal efficacy |  |
| FC(F)COc1cnccc1-c1nc2cc(C(F)(F)F)ccc2o1 [Compound 110, 2-[3-(2,2-difluoroethoxy)pyridin-4-yl]-5-(trifluoromethyl)benzoxazole] | high pesticidal efficacy |  |  |  |  |  |  |
| FC(F)(F)c1ccc2oc(-c3ccncc3-c3cccnc3)nc2c1 [Compound 128, 4-(5-trifluoromethyl-benzoxazole-2-yl)-[3,3′]bipyridinyl] | high pesticidal efficacy | high pesticidal efficacy | high pesticidal efficacy | high pesticidal efficacy | high pesticidal efficacy | high pesticidal efficacy |  |
| CC(C)N(C)c1cnccc1-c1nc2cc(C(F)(F)F)ccc2o1 [Compound 132, isopropyl-methyl-{4-[5-(trifluoromethyl)benzoxazole-2-yl]pyridin-3-yl}amine] | high pesticidal efficacy |  |  |  |  |  |  |
| CCS(=O)(=O)c1cnccc1-c1nc2cc(C(F)(F)F)ccc2o1 [Compound 133, 2-[3-(ethanesulfonyl)pyridin-4-yl]-5-(trifluoromethyl)benzoxazole] | high pesticidal efficacy |  |  |  |  |  |  |
| FC(F)(F)c1cnc2oc(-c3ccncc3)nc2c1 [Compound 138, 2-pyridin-4-yl-6-(trifluoromethyl)oxazolo[5,4-b]pyridine] | high pesticidal efficacy |  |  |  |  |  |  |
| FC(F)(F)c1cnc2oc(-c3ccncc3Cl)nc2c1 [Compound 139, 2-(3-chloropyridin-4-yl)-6-(trifluoromethyl)oxazolo[5,4-b]pyridine] |  | high pesticidal efficacy | high pesticidal efficacy | high pesticidal efficacy | high pesticidal efficacy | high pesticidal efficacy |  |
| [O-][n+]1ccc(-c2nc3cc(C(F)(F)F)cnc3o2)c(Cl)c1 [Compound 140, 2-(3-chloro-1-oxypyridin-4-yl)-6-(trifluoromethyl)oxazolo[5,4-b]pyridine] | high pesticidal efficacy |  |  |  |  |  |  |
| CCc1cnccc1-c1nc2cc(C(F)(F)F)cnc2o1 [Compound 143, 2-(3-ethylpyridin-4-yl)-6-(trifluoromethyl)oxazolo[5,4-b]pyridine] | high pesticidal efficacy | high pesticidal efficacy | high pesticidal efficacy | high pesticidal efficacy | high pesticidal efficacy | high pesticidal efficacy |  |
| FC(F)(F)c1cnc2oc(-c3ccncc3C(F)(F)F)nc2c1 [Compound 144, 6-trifluoromethyl-2-[3-(trifluoromethyl)pyridin-4-yl]-oxazolo[5,4-b]pyridine] | high pesticidal efficacy |  |  |  |  |  |  |
| CSc1cnccc1-c1nc2cc(C(F)(F)F)cnc2o1 [Compound 146, 2-(3-methylthiopyridin-4-yl)-6-(trifluoromethyl)oxazolo[5,4-b]pyridine] | high pesticidal efficacy | high pesticidal efficacy | high pesticidal efficacy | high pesticidal efficacy | high pesticidal efficacy | high pesticidal efficacy |  |
| CCS(=O)(=O)c1cnccc1-c1nc2cc(C(F)(F)F)cnc2o1 [Compound 150, 2-[3-(ethanesulfonyl)pyridin-4-yl]-6-(trifluoromethyl)oxazolo[5,4-b]pyridine] | high pesticidal efficacy |  |  |  |  |  |  |
